# Assay results taken from PubChem BioAssay AID1963430 (Molecular Pharmacology Branch, DTP, NCI, 2024).
# pIC50: −log10 of the molar value.
# System: 521955-158-R2-J5-PDC complex spheroid growth, % test/control
# Assay: Anticancer human tumor 521955-158-R2-J5-PDC patient-derived pancreatic carcinoma cell line growth inhibition [Asc]
# Conditions: for pIC50: curve of first compound; for viability, T/C: stronger effect = lower value
# Outline: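 Stromal components (HUVEC and hMSC) are co-assembled with the cancer cells into multicellular spheroids. Drugs are then added singly or paired, at concentrations falling by half-log increments from a clinically achievable maximum, capped at 10 microM without known Cmax.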
# [1] = second compound 0.1 µM, first compound 0.0316 µM
# [2] = second compound 0.1 µM, first compound 0.1 µM
# [3] = second compound 0.1 µM, first compound 0.316 µM
# [4] = second compound 0.1 µM, first compound 1 µM
# [5] = second compound 0.316 µM, first compound 0.0316 µM
# [6] = second compound 0.316 µM, first compound 0.1 µM
# [7] = second compound 0.316 µM, first compound 0.316 µM
# [8] = second compound 0.316 µM, first compound 1 µM
# [9] = second compound 1 µM, first compound 0.0316 µM
# [10] = second compound 1 µM, first compound 0.1 µM
# [11] = second compound 1 µM, first compound 0.316 µM
# [12] = second compound 1 µM, first compound 1 µM
# [13] = second compound 3.16 µM, first compound 0.0316 µM
# [14] = second compound 3.16 µM, first compound 0.1 µM
# [15] = second compound 3.16 µM, first compound 0.316 µM
# [16] = second compound 3.16 µM, first compound 1 µM
# [17] = second compound 10 µM, first compound 0.0316 µM
# [18] = second compound 10 µM, first compound 0.1 µM
# [19] = second compound 10 µM, first compound 0.316 µM
# [20] = second compound 10 µM, first compound 1 µM
# 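Note: spheroids exposed to agents for 7 days before readout.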
# 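Throughout, for viability, T/C: 100% = DMSO vehicle control viability.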
smiles,measurement,setting,value
C=C(F)C(=O)N1CCN(c2nc(OCC3CCCN3C)nc3c2CCN(c2cccc4cccc(Cl)c24)C3)CC1CC#N (stereo not given) + Cc1c(S(C)(=O)=O)c(-c2cc(F)cc(N3CCN(c4ccc(NS(=O)(=O)c5ccc(NC(CCN6CCC(C(=O)OCCCP(=O)(O)O)CC6)CSc6ccccc6)c(S(=O)(=O)C(F)(F)F)c5)cc4)CC3)c2)c(-c2ccc(Cl)cc2)n1C(C)C,pIC50,second compound 0.1 µM,5.31
same,pIC50,second compound 0.316 µM,5.31
same,pIC50,second compound 1 µM,5.28
same,pIC50,second compound 3.16 µM,5.30
same,pIC50,second compound 10 µM,5.18
same,"viability, T/C",[1],64.6%
same,"viability, T/C",[2],69.9%
same,"viability, T/C",[3],55.4%
same,"viability, T/C",[4],105%
same,"viability, T/C","second compound 0.1 µM, first compound 3.16 µM",101%
same,"viability, T/C","second compound 0.1 µM, first compound 10 µM",0.26%
same,"viability, T/C",[5],69%
same,"viability, T/C",[6],76.6%
same,"viability, T/C",[7],81.7%
same,"viability, T/C",[8],84.3%
same,"viability, T/C","second compound 0.316 µM, first compound 3.16 µM",95.5%
same,"viability, T/C","second compound 0.316 µM, first compound 10 µM",0.21%
same,"viability, T/C",[9],105%
same,"viability, T/C",[10],82.9%
same,"viability, T/C",[11],69.2%
same,"viability, T/C",[12],80.8%
same,"viability, T/C","second compound 1 µM, first compound 3.16 µM",106%
same,"viability, T/C","second compound 1 µM, first compound 10 µM",0.21%
same,"viability, T/C",[13],62.4%
same,"viability, T/C",[14],80.9%
same,"viability, T/C",[15],69.5%
same,"viability, T/C",[16],104%
same,"viability, T/C","second compound 3.16 µM, first compound 3.16 µM",99.2%
same,"viability, T/C","second compound 3.16 µM, first compound 10 µM",0.23%
same,"viability, T/C",[17],190%
same,"viability, T/C",[18],168%
same,"viability, T/C",[19],195%
same,"viability, T/C",[20],188%
same,"viability, T/C","second compound 10 µM, first compound 3.16 µM",138%
same,"viability, T/C","second compound 10 µM, first compound 10 µM",2.12%
CCN1C(C(=O)NC23CCC(C(=O)O)(CC2)CC3)C(c2cccc(Cl)c2F)C2(C(=O)Nc3cc(Cl)ccc32)C12CCCCC2 (stereo not given) + Cc1c(S(C)(=O)=O)c(-c2cc(F)cc(N3CCN(c4ccc(NS(=O)(=O)c5ccc(NC(CCN6CCC(C(=O)OCCCP(=O)(O)O)CC6)CSc6ccccc6)c(S(=O)(=O)C(F)(F)F)c5)cc4)CC3)c2)c(-c2ccc(Cl)cc2)n1C(C)C,pIC50,second compound 0.1 µM,< 5.52
same,pIC50,second compound 0.316 µM,< 5.52
same,pIC50,second compound 1 µM,< 5.52
same,pIC50,second compound 3.16 µM,< 5.52
same,pIC50,second compound 10 µM,< 5.52
same,"viability, T/C","second compound 0.1 µM, first compound 0.00949 µM",70.7%
same,"viability, T/C","second compound 0.1 µM, first compound 0.03 µM",80.8%
same,"viability, T/C","second compound 0.1 µM, first compound 0.0949 µM",54.6%
same,"viability, T/C","second compound 0.1 µM, first compound 0.3 µM",95%
same,"viability, T/C","second compound 0.1 µM, first compound 0.949 µM",76.5%
same,"viability, T/C","second compound 0.1 µM, first compound 3 µM",92.6%
same,"viability, T/C","second compound 0.316 µM, first compound 0.00949 µM",73.3%
same,"viability, T/C","second compound 0.316 µM, first compound 0.03 µM",90.4%
same,"viability, T/C","second compound 0.316 µM, first compound 0.0949 µM",61.1%
same,"viability, T/C","second compound 0.316 µM, first compound 0.3 µM",72.8%
same,"viability, T/C","second compound 0.316 µM, first compound 0.949 µM",76%
same,"viability, T/C","second compound 0.316 µM, first compound 3 µM",89.6%
same,"viability, T/C","second compound 1 µM, first compound 0.00949 µM",66.2%
same,"viability, T/C","second compound 1 µM, first compound 0.03 µM",91%
same,"viability, T/C","second compound 1 µM, first compound 0.0949 µM",69.4%
same,"viability, T/C","second compound 1 µM, first compound 0.3 µM",74.1%
same,"viability, T/C","second compound 1 µM, first compound 0.949 µM",67.7%
same,"viability, T/C","second compound 1 µM, first compound 3 µM",64.5%
same,"viability, T/C","second compound 3.16 µM, first compound 0.00949 µM",111%
same,"viability, T/C","second compound 3.16 µM, first compound 0.03 µM",91.7%
same,"viability, T/C","second compound 3.16 µM, first compound 0.0949 µM",86.1%
same,"viability, T/C","second compound 3.16 µM, first compound 0.3 µM",100%
same,"viability, T/C","second compound 3.16 µM, first compound 0.949 µM",77%
same,"viability, T/C","second compound 3.16 µM, first compound 3 µM",76.7%
same,"viability, T/C","second compound 10 µM, first compound 0.00949 µM",151%
same,"viability, T/C","second compound 10 µM, first compound 0.03 µM",153%
same,"viability, T/C","second compound 10 µM, first compound 0.0949 µM",166%
same,"viability, T/C","second compound 10 µM, first compound 0.3 µM",169%
same,"viability, T/C","second compound 10 µM, first compound 0.949 µM",107%
same,"viability, T/C","second compound 10 µM, first compound 3 µM",112%
CNC(C)C(=O)NC1CN(S(=O)(=O)c2cccc(S(=O)(=O)N3CCC4CCC(C(=O)NC(c5ccccc5)c5ccccc5)N4C(=O)C(NC(=O)C(C)NC)C3)c2)CCC2CCC(C(=O)NC(c3ccccc3)c3ccccc3)N2C1=O (stereo not given) + Cc1c(S(C)(=O)=O)c(-c2cc(F)cc(N3CCN(c4ccc(NS(=O)(=O)c5ccc(NC(CCN6CCC(C(=O)OCCCP(=O)(O)O)CC6)CSc6ccccc6)c(S(=O)(=O)C(F)(F)F)c5)cc4)CC3)c2)c(-c2ccc(Cl)cc2)n1C(C)C,pIC50,second compound 0.1 µM,< 6.00
same,pIC50,second compound 0.316 µM,< 6.00
same,pIC50,second compound 1 µM,< 6.00
same,pIC50,second compound 3.16 µM,< 6.00
same,pIC50,second compound 10 µM,< 6.00
same,"viability, T/C","second compound 0.1 µM, first compound 0.00316 µM",75.6%
same,"viability, T/C","second compound 0.1 µM, first compound 0.01 µM",64%
same,"viability, T/C",[1],57.1%
same,"viability, T/C",[2],76.4%
same,"viability, T/C",[3],64%
same,"viability, T/C",[4],67.9%
same,"viability, T/C","second compound 0.316 µM, first compound 0.00316 µM",92.7%
same,"viability, T/C","second compound 0.316 µM, first compound 0.01 µM",86.7%
same,"viability, T/C",[5],89.3%
same,"viability, T/C",[6],74.6%
same,"viability, T/C",[7],91.1%
same,"viability, T/C",[8],87.6%
same,"viability, T/C","second compound 1 µM, first compound 0.00316 µM",97.2%
same,"viability, T/C","second compound 1 µM, first compound 0.01 µM",88.4%
same,"viability, T/C",[9],71.8%
same,"viability, T/C",[10],77.8%
same,"viability, T/C",[11],59.8%
same,"viability, T/C",[12],75.7%
same,"viability, T/C","second compound 3.16 µM, first compound 0.00316 µM",97.7%
same,"viability, T/C","second compound 3.16 µM, first compound 0.01 µM",75.9%
same,"viability, T/C",[13],47.5%
same,"viability, T/C",[14],80.6%
same,"viability, T/C",[15],65.8%
same,"viability, T/C",[16],60.4%
same,"viability, T/C","second compound 10 µM, first compound 0.00316 µM",192%
same,"viability, T/C","second compound 10 µM, first compound 0.01 µM",171%
same,"viability, T/C",[17],180%
same,"viability, T/C",[18],149%
same,"viability, T/C",[19],197%
same,"viability, T/C",[20],121%
